Test results as given in patent US9522881B2, “Hydroxyindole carboxylic acid based inhibitors for oncogenic Src homology-2 domain containing protein tyrosine phosphatase-2 (SHP2)” (Indiana University Research and Technology Corporation, priority 2013, dated 2016).
Entries after “also recorded” stand apart in the source; their conditions may differ.

Tests used:
PTP1B = PTP1B (Homo sapiens (Human), UniProt P18031); test: PTP selectivity panel, pNPP; format: biochemical, mammalian
VHZ = VHZ (Homo sapiens (Human), UniProt Q9BVJ7); test: PTP selectivity panel, pNPP; format: biochemical, mammalian; conditions: pNPP at Km
VHZ, sequence (Q9BVJ7 whole entry, species assumed): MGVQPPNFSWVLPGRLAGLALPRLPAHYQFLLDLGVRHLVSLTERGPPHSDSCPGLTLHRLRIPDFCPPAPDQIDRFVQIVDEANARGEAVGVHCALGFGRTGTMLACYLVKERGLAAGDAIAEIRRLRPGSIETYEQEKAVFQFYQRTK

PTPμ = PTPμ (Homo sapiens (Human), UniProt P28827); test: PTP selectivity panel, pNPP; format: biochemical, mammalian; conditions: pNPP at Km
PTPμ, sequence (P28827 21-1452): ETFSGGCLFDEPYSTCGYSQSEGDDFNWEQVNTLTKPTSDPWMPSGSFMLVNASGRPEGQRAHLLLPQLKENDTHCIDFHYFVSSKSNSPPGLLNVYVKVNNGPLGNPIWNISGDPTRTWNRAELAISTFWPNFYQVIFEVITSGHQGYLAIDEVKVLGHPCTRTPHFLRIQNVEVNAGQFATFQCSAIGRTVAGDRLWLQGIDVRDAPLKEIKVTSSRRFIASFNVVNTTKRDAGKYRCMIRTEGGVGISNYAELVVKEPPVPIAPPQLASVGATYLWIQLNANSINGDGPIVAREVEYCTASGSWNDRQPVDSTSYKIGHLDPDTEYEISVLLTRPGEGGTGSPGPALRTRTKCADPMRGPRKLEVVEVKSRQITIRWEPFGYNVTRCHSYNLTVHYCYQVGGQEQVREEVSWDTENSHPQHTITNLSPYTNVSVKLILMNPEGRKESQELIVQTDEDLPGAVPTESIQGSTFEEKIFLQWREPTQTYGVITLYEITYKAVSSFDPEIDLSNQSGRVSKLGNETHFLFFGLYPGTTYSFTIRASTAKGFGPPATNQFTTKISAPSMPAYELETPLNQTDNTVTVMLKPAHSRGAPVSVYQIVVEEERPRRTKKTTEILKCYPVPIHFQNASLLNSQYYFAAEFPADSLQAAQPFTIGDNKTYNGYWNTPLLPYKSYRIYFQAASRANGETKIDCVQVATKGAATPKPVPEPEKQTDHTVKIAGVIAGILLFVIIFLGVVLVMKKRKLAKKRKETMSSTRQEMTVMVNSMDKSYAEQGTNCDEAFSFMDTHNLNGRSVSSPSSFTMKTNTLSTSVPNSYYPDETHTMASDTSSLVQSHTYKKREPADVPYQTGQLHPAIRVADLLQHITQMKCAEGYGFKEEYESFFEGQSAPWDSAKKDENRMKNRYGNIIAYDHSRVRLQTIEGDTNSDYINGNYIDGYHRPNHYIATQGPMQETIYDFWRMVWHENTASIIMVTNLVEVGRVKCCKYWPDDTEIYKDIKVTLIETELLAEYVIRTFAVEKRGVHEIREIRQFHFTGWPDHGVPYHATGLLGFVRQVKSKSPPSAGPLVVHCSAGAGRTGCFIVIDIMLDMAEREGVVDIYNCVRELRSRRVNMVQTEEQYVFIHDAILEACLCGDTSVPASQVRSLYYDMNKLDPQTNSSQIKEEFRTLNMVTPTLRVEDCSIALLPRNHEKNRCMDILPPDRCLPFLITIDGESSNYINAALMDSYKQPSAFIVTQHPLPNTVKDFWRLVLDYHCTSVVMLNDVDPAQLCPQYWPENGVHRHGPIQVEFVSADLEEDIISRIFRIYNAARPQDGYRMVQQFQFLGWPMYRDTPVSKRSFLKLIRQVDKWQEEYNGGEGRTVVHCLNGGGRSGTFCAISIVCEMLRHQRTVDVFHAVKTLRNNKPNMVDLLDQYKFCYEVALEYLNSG

PTPε = PTPε (Homo sapiens (Human), UniProt P23469); test: PTP selectivity panel, pNPP; format: biochemical, mammalian; conditions: pNPP at Km
PTPε, sequence (P23469 20-700): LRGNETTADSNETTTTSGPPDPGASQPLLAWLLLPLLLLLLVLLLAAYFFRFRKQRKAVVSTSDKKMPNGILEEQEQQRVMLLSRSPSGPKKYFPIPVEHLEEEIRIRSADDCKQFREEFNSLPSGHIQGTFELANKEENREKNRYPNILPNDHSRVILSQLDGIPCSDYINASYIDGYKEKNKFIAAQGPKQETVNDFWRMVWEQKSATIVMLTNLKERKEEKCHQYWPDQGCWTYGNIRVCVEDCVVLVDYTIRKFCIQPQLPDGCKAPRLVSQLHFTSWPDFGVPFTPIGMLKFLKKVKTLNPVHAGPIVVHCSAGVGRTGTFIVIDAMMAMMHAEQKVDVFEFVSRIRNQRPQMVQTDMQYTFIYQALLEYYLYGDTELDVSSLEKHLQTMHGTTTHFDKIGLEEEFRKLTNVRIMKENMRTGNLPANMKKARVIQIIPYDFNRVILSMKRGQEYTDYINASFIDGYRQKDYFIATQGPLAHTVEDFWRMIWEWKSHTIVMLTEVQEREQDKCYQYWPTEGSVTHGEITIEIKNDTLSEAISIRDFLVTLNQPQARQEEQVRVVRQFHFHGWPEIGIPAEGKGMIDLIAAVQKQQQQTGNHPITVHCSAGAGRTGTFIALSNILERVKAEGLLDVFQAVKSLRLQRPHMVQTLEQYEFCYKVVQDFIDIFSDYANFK

[1] = system: EGF-induced Erk1/2 phosphorylation; test: EGF-induced Erk1/2 phosphorylation in H1975 cells (immunoblot); format: cell-based, human
Procedure: For biochemical studies, H1975 cells were serum-starved overnight followed by treatment with vehicle or compound 11a-1 for 3 hours, and then either left unstimulated or stimulated with 5 ng/ml EGF (Sigma, St. Louis, Mo.) for 60 minutes. Lysates were then resolved by SDS-PAGE and the protein phosphorylation levels were detected by immunoblot analysis. Specifically, cells were lysed in lysis buffer (1.0% Nonidet P-40, 50 mM Tris-HCl (pH 7.4), 150 mM NaCl, 5 mM EDTA, 2 mM NaVO3, 10 mM NaF) plus a protease inhibitor mixture available from Roche (Basel, Switzerland) and centrifuged at 10,000 rpm for 5 minutes at 4° C. Supernatants were collected and protein concentration was determined using the BCA protein assay (ThermoFisher Scientific, Rockford, Ill.). Equal amount of protein extracts were mixed with gel loading buffer and separated on SDS-PAGE. After electrophoresis, the proteins were transferred onto nitrocellulose membranes and nonspecific binding was blocked with 5% nonfat dry milk in Tris-buffered saline containing 0.1% Tween-20 (TBS-T). Membranes were then probed with various antibodies overnight at 4° C. on a rocker. After incubation, membranes were washed with TBS-T and incubated with appropriate horseradish peroxidase (HRP)-conjugated secondary antibodies for 1 hour at room temperature. Finally, the proteins on the membranes were detected using SuperSignal West Dura Luminol/Enhancer solution (ThermoFisher Scientific, Rockford, Ill.) and membranes were analyzed using Bio-Rad ChemiDoc XRS Imaging System.

[2] = system: PMA-induced Erk1/2 phosphorylation; test: PMA-induced Erk1/2 phosphorylation; format: cell-based
Procedure: To provide further evidence that the observed cellular effect of compound 11a-1 is SHP2 dependent, the effect of compound 11a-1 on PMA (phorbol 12-myristate 13-acetate)-induced Erk1/2 activation, which is SHP2 independent and instead depends on the activation of protein kinase C and Raf in a Ras-independent manner, was evaluated. Thus, SHP2 inhibitors would not be expected to affect PMA-induced Erk1/2 phosphorylation. Indeed, compound 11a-1 had no effect on PMA-induced Erk1/2 phosphorylation (FIG. 6D).

[3] = system: Erk1/2 and Akt phosphorylation; test: Erk1/2 and Akt phosphorylation in SKBR3 cells recovered from Matrigel (immunoblot); format: cell-based; conditions: 1 μM to 10 μM, 4 days in Matrigel
Procedure: Approximately 300,000 SKBR3 cells were seeded into 150 μl of growth factor reduced Matrigel (Corning, Corning, N.Y.) in 35 mm dishes. To 3 dishes for each condition, 2 mL of media containing either 10 μl vehicle (DMSO) or compound 11a-1 at the indicated concentration was then added. Every 24 hours, the cells were imaged with a NIKON SMZ1500 stereomicroscoppe. The cross-sectional area of individual colonies from each image were measured using Adobe Photoshop software. After 4 days, the cells were recovered from the Matrigel and lysed in PLC buffer containing protease inhibitor cocktail (Cat. No. P8340; Sigma-Aldrich, St. Louis, Mo.). Lysates were then resolved by SDS-PAGE and relative levels of the indicated proteins were detected by immunoblot analysis.

[4] = system: 32D myeloid cells bearing wild-type (WT) KIT; test: Proliferation (thymidine incorporation) of 32D myeloid cells bearing WT KIT; format: cell-based; conditions: tested concentrations, with IL-3
Procedure: FIG. 8A is a graph depicting 32D myeloid cells bearing wild-type (WT) KIT or KITD814V that were starved of serum and growth factors for 6 hours and subjected to proliferation assay in the presence or absence of the indicated concentration of II-B08 or 11a-1 as analyzed in Example 6. Assay was performed in the presence of IL-3 (10 ng/mL) for cells bearing WT KIT and in the absence of growth factors for cells bearing oncogenic KITD814V. Bars denote the mean thymidine incorporation (CPM±SEM) consolidated from four independent experiments performed in triplicate. *p<0.05.
To further determine the efficacy of compound 11a-1, the growth of oncogenic KITD814V bearing 32D myeloid cells in the presence of II-B08 and 11a-1 were compared. Specifically, the wild-type (WT) KIT and KITD814V were inserted into the bicistronic retroviral vector, MIEG3, upstream of the internal ribosome entry site (IRES) and the enhanced green fluorescent protein (EGFP) gene as previously described in Mali et al., 2012. Retroviral supernatants for transduction of 32D myeloid cells and primary hematopoietic stem and progenitor cells were generated using Phoenix ecotropic packaging cell line transfected with retroviral vector plasmids using a calcium phosphate transfection kit (Invitrogen, Carlsbad, Calif.). Supernatants were collected 48 hours after transfection and filtered through 0.45 μm membranes. […]

[5] = system: primary low density bone marrow cells bearing KITD814V; test: Proliferation of primary bone marrow cells bearing KITD814V; format: cell-based, C57BL/6 mice; conditions: 1 μM and 5 μM, compared to II-B08
Procedure: FIG. 8B is a graph depicting WT hematopoietic stem and progenitor cells bearing KITD814V that were starved of serum and growth factors for 6 hours and subjected to proliferation assay in the presence or absence of indicated concentration of II-B08 or 11a-1 as analyzed in Example 6. Bars denote the mean thymidine incorporation (CPM±SD) performed in triplicate from one experiment. *p<0.05.
To further determine the effect of II-B08 and compound 11a-1 on primary bone marrow cells bearing oncogenic KITD814V, primary low density bone marrow cells from C57BL/6 mice were transduced with KITD814V and sorted cells were subjected to a proliferation assay in the presence or absence of the SHP2 inhibitors, II-B08 and compound 11a-1. To express WT KIT and KITD814V receptors in bone marrow cells, low density bone marrow cells were collected from WT mice, and pre-stimulated in IMDM supplemented with 20% FBS, 2% penicillin/streptomycin, and cytokines (100 ng/mL SCF, 100 ng/mL TPO, 50 ng/mL FLT3-L and 4 ng/mL IL-6) for 48 hours prior to retroviral infection on fibronectin fragments (Retronectin) in non-tissues culture plates. On the third day, cells were infected with 2 mL of high-titer retroviral supernatants for WT KIT or KITD814V prepared as described above. A second shot of viral infection was given 24 hours later. […]

PTP1B, sequence (P18031 whole entry, species assumed): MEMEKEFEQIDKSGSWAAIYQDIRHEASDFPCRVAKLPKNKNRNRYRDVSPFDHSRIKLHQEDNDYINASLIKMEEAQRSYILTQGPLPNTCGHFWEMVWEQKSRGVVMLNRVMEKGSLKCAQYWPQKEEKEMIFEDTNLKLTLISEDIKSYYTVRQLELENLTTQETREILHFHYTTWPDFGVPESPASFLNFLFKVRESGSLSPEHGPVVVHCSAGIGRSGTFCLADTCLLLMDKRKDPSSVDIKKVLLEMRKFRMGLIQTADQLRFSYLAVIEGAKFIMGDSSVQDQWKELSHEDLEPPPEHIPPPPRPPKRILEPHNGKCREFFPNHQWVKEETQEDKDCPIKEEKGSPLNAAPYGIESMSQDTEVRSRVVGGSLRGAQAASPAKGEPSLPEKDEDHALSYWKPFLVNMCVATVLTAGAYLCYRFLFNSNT

Cn1c(-c2cccc(NC(=O)C(=O)Nc3ccc(-c4ccsc4)cc3)c2)c(I)c2cc(C(=O)O)c(O)cc21 [11a-1, 6-hydroxy-3-iodo-1-methyl-2-(3-(2-oxo-2-((4-(thiophen-3-yl)phenyl)amino)acetamido)phenyl)-1H-indole-5-carboxylic acid] was tested, and the “preference for SHP2 over PTP1B” value (PTP1B) was 11 fold, the IC50 (VHZ) was 2.3 ± 0.2 µM and the IC50 (PTPμ) was 3.3 ± 0.2 µM. For the same molecule, the IC50 (PTPε) was over 20 µM, the “reduction of Erk1/2 phosphorylation” value ([1]; H1975 cells, 2 μM) was 40% and the “effect on EGF-induced Erk1/2 phosphorylation” value ([1]; H1975 cells, dose-dependent) was “effectively reduced; also recorded: decreased”. For the same molecule, the “ability to inhibit EGF-mediated Erk1/2 activation in SHP2 knocked down cells” value ([1]; SHP2 knocked down with siRNA) was “blunted”, the “effect on PMA-induced Erk1/2 phosphorylation” value [2] was “no effect” and the “Erk1/2 and Akt phosphorylation in SKBR3 cells” value [3] was “concordantly inhibited”. For the same molecule, the “growth of WT KIT bearing 32D cells” value [4] was “no significant suppression” and the “growth of primary bone marrow cells bearing KITD814V” value [5] was “significant reduced growth”.
